From US20110152078A1, “Pesticidal Compound Mixtures” (BAYER CROPSCIENCE AG, priority 2009, published 2011) come the findings set out here.

Common to all, as to format: in vivo
The subject of data set [1] is larvae of the fall army worm (Spodoptera frugiperda). In words: Spodoptera frugiperda test (Example C), sprayed cabbage leaves. The note with it: single compound. How it is done:
(§1) To produce a suitable preparation of active compound, 1 part by weight of active compound is mixed with the stated amount of solvent and emulsifier, and the concentrate is diluted with emulsifier-containing water to the desired concentration.
Cabbage leaves (Brassica oleracea) are treated by being sprayed with the preparation of the active compound at the desired concentration and are infested with larvae of the fall army worm (Spodoptera frugiperda) as long as the leaves are still moist.
After the specified period of time, the mortality in % is determined. 100% means that all the caterpillars have been killed; 0% means that none of the caterpillars have been killed. According to the present application in this test e.g. the following combinations show a synergistic effect in comparison to the single compounds: […]

The test system of data set [2] is green peach aphid (Myzus persicae). In words: Myzus persicae test (Example A), spray on infested cabbage leaves. The note with it: single compound. How it is done:
as §1
(§2) Cabbage leaves (Brassica oleracea) which are heavily infested by the green peach aphid (Myzus persicae) are treated by being sprayed with the preparation of the active compound at the desired concentration.
(§3) After the specified period of time, the mortality in % is determined. 100% means that all the aphids have been killed; 0% means that none of the aphids have been killed.

For data set [3] the test system is unchanged. In words: Myzus persicae test (Example E), spray on infested cabbage leaves. The note with it: single compound. How it is done:
as §1, §2, §3

For data set [4], the system named is cotton aphid (Aphis gossypii). In words: Aphis gossypii test (Example D), spray on infested cotton leaves. Particulars: single compound. How it is done: Solvent: 7 parts by weight of dimethylformamide Emulsifier: 2 parts by weight of alkylaryl polyglycolether
as §1
Cotton leaves (Gossypium hirsutum) which are heavily infested by the cotton aphid (Aphis gossypii) are treated by being sprayed with the preparation of the active compound at the desired concentration.
as §3

The test system of data set [5] is larvae of the mustard beetle (Phaedon cochleariae). As to the kind of experiment: Phaedon cochleariae larvae test (Example B), sprayed cabbage leaves. Particulars: 144 h, single compound, after 6 d. How it is done:
as §1
Cabbage leaves (Brassica oleracea) are treated by being sprayed with the preparation of the active compound at the desired concentration and are infested with larvae of the mustard beetle (Phaedon cochleariae) as long as the leaves are still moist.
After the specified period of time, the mortality in % is determined. 100% means that all the beetle larvae have been killed; 0% means that none of the beetle larvae have been killed. According to the present application in this test e.g. the following combinations show a synergistic effect in comparison to the single compounds: […]

[6] abbreviates: Myzus persicae, 144 h, 500 g/ha, after 6 d.

In the case of `Cn1cc(C(=O)Nc2ccc(F)cc2-c2ccc(Cl)c(Cl)c2)c(C(F)F)n1` [Bixafen, bixafen], the “Mortality in % after 6 d” value in data set [1] (500 g/ha) was determined as 17%; in data set [2] (500 g/ha), 0%.

Broadly, the mortality is the percentage killed. In the case of `CSC1=N[C@@](C)(c2ccccc2)C(=O)N1Nc1ccccc1` [Fenamidone, fenamidone], the mortality at 200 g/ha in data set [3] (Myzus persicae, 144 h, 200 g/ha, after 6 d) is 0%; in data set [4] (Aphis gossypii, 144 h, 200 g/ha, after 6 d), 0%.

On to `O=C(NCCc1ncc(C(F)(F)F)cc1Cl)c1ccccc1C(F)(F)F` [Fluopyram, fluopyram], for which the mortality at 500 g/ha in data set [5] (500 g/ha) and in data set [2] (setting [6]) was 0% each time.

In data set [2] (setting [6]), `CO/N=C(/C1=NOCCO1)c1ccccc1Oc1ncnc(Oc2ccccc2Cl)c1F` [Fluoxastrobin, fluoxastrobin] had a mortality at 500 g/ha of 0%.

In the case of `CNC(=O)/C(=N/OC)c1ccccc1Oc1ccccc1` [Metominostrobin, metominostrobin], in data set [2] (setting [6]), the mortality at 500 g/ha came out at 0%.

As for `Cc1nn(C)c(F)c1C(=O)Nc1ccccc1C(C)CC(C)C` (stereo not drawn) [Penflufen, penflufen], the “Mortality in % after 6 d” value in data set [3] (200 g/ha) and in data set [4] (200 g/ha) was 0% in each case.

Compound `COC(=O)N(OC)c1ccccc1COc1ccn(-c2ccc(Cl)cc2)n1` [Pyraclostrobin, pyraclostrobin] returned a mortality at 500 g/ha in data set [2] (setting [6]) of 0%.

With `CC1(C)[C@H](C=C(Cl)Cl)[C@H]1C(=O)OCc1c(F)c(F)cc(F)c1F` [Transfluthrin], the mortality at 20 g/ha in data set [5] (20 g/ha) was determined as 0%; in data set [2] (Myzus persicae, 144 h, 20 g/ha, after 6 d) it was 70%. The mortality at 10 g/ha in data set [3] (Myzus persicae, 144 h, 10 g/ha, after 6 d) turned out to be 0%; in data set [4] (Aphis gossypii, 144 h, 10 g/ha, after 6 d), 5%. Also, in data set [1] (Spodoptera frugiperda, 144 h, 4 g/ha, after 6 d), the mortality at 4 g/ha worked out at 50%. This compound also displayed a mortality at 100 g/ha in data set [2] (Myzus persicae, 144 h, 100 g/ha, after 6 d) of 80%.

`CON=C(C(=O)OC)c1ccccc1CON=C(C)c1cccc(C(F)(F)F)c1` [Trifloxystrobin, trifloxystrobin] showed a mortality at 500 g/ha in data set [2] (setting [6]) of 0%.
